The target of data set [1] is T1, Solute carrier family 22 member 1 (Rattus norvegicus, UniProt Q63089).
T1 sequence (Q63089 whole entry): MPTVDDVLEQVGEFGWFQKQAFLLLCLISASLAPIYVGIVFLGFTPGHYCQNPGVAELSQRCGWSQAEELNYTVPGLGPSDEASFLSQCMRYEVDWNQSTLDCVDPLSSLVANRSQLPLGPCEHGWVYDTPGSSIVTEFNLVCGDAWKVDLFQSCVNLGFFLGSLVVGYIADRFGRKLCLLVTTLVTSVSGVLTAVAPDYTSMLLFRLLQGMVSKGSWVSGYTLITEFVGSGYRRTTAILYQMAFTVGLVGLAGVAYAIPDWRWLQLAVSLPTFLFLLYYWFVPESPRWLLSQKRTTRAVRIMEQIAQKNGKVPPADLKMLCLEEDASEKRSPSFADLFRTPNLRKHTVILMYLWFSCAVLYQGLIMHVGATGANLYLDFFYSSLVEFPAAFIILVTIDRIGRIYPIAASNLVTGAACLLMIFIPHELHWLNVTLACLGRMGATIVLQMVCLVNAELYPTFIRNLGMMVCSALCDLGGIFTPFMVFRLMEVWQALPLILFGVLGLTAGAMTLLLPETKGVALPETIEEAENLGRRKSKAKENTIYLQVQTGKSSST
The experiment in a line: TP_TRANSPORTER: inhibition of TEA uptake in Xenopus laevis oocytes. The format is functional, cell-based, Oocyte.

In data set [2] the target is T2, Solute carrier family 22 member 2 (Rattus norvegicus, UniProt Q9R0W2).
T2 sequence (Q9R0W2 whole entry): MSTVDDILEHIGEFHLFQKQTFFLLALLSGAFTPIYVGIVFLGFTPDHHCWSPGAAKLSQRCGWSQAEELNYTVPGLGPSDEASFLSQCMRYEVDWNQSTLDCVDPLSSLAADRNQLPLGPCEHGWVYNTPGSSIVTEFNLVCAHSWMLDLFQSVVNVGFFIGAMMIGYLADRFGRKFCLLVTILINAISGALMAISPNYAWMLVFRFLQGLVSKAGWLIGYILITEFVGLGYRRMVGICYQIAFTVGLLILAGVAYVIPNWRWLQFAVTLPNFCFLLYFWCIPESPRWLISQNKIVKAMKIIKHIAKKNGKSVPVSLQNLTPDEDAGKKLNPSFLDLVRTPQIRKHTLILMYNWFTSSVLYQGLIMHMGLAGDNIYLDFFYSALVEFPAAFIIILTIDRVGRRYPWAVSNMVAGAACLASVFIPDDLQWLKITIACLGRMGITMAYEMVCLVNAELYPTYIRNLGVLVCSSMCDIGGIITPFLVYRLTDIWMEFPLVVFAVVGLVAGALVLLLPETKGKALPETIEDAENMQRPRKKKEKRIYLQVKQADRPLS
Put plainly: (§1) TP_TRANSPORTER: uptake in Xenopus laevis oocytes. The note with it: oocyte. The format is functional, cell-based.

The target in data set [3] is T1, Solute carrier family 22 member 1. The data set is described as §1. The format is functional, cell-based. As to conditions: oocyte.
The target is the same in data set [4]. Put plainly: TP_TRANSPORTER: inhibition of dTub uptake in Xenopus laevis oocytes.
Substrate in data set [5]: CC[N+](CC)(CC)CC
Put plainly: cells, lysate or membranes named.

As usually defined, the Ki is a measure of affinity in units of concentration, obtained from inhibition or displacement. High values mean lower affinity, low ones higher affinity. Take `Nc1ncnc2c1ccn2[C@H]1C[C@H](O)[C@@H](CO)O1` [2'-Deoxytubercidin]: the Ki in data set [1] was 19 µM.

Consider `Nc1nc(Cl)nc2c1ncn2[C@H]1C[C@H](O)[C@@H](CO)O1` [CLADRIBINE], for which the Activity entry in data set [2] is “is not a substrate [-]”; in data set [3], “substrate [+]”.

Turning to `Nc1ccn([C@@H]2O[C@H](CO)[C@@H](O)[C@@H]2O)c(=O)n1` [CYTARABINE], the Activity result in data set [2] was “is not a substrate [-]”; in data set [3], “substrate [+]”.

As for `CC[N+](CC)(CC)CC` [TETRYLAMMONIUM], in data set [4], the Ki was 286 µM.

With `Cc1cn([C@H]2C[C@H](N=[N+]=[N-])[C@@H](CO)O2)c(=O)[nH]c1=O` [ZIDOVUDINE], the Activity entry is “is not a substrate [-]” in data set [2] and “substrate [+]” in data set [3].

B1: Solute carrier family 22 member 1 (Rattus norvegicus) (protein)
chain: MPTVDDVLEQVGEFGWFQKQAFLLLCLISASLAPIYVGIVFLGFTPGHYCQNPGVAELSQRCGWSQAEELNYTVPGLGPSDEASFLSQCMRYEVDWNQSTLDCVDPLSSLVANRSQLPLGPCEHGWVYDTPGSSIVTEFNLVCGDAWKVDLFQSCVNLGFFLGSLVVGYIADRFGRKLCLLVTTLVTSVSGVLTAVAPDYTSMLLFRLLQGMVSKGSWVSGYTLITEFVGSGYRRTTAILYQMAFTVGLVGLAGVAYAIPDWRWLQLAVSLPTFLFLLYYWFVPESPRWLLSQKRTTRAVRIMEQIAQKNGKVPPADLKMLCLEEDASEKRSPSFADLFRTPNLRKHTVILMYLWFSCAVLYQGLIMHVGATGANLYLDFFYSSLVEFPAAFIILVTIDRIGRIYPIAASNLVTGAACLLMIFIPHELHWLNVTLACLGRMGATIVLQMVCLVNAELYPTFIRNLGMMVCSALCDLGGIFTPFMVFRLMEVWQALPLILFGVLGLTAGAMTLLLPETKGVALPETIEEAENLGRRKSKAKENTIYLQVQTGKSSST
A word on the Km: it is the substrate concentration at which the rate is half of its maximum. For the molecule B1, the Km in data set [5] stood at 251 µM.

Source of the values: ChEMBL document CHEMBL2074159, “Role of organic cation transporters in the renal secretion of nucleosides” (Biochem Pharmacol, 2000).
